In patent EP0799218B1, “DIARYL-2-(5H)-FURANONES AS COX-2 INHIBITORS” (Merck Frosst Canada & Co., priority 1994, dated 1996):

Tests used:
Cox-2 = biological target: T1, Cox-2 (Homo sapiens, UniProt P35354); test: Human whole blood assay, Cox-2 (LPS-induced PGE2 production); type: cell-based; conditions: LPS 100 µg/ml, 24 hours at 37 °C, PGE2 by radioimmunoassay, read-out: HWB Cox-2 IC50
T1 construct: endogenous in cells; host or cells: fresh heparinized human whole blood from volunteers, stimulated with LPS
T1 sequence (P35354 18-604 limits assumed): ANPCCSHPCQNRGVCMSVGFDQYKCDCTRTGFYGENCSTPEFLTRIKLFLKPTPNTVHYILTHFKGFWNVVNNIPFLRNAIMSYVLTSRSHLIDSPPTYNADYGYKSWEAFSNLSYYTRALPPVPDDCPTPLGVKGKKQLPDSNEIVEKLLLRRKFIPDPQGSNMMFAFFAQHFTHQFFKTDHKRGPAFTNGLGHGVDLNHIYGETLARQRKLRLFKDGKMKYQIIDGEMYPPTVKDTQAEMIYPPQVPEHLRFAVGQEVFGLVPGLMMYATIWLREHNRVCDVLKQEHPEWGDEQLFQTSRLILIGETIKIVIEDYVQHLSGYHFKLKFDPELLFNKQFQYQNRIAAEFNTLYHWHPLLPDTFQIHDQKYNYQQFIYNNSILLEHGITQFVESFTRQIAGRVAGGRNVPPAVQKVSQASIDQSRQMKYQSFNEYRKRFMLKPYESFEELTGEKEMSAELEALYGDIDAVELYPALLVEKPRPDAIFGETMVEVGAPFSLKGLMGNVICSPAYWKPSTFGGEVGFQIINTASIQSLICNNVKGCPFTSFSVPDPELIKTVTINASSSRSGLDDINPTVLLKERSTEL
Protocol: (§1) Human whole blood provides a protein and cell-rich milieu appropriate for the study of biochemical efficacy of anti-inflammatory compounds such as selective Cox-2 inhibitors. […] This is consistent with the observation that Cox-2 inhibitors have no effect on PGE2 production in normal blood. These inhibitors are active only after incubation of human whole blood with LPS (lipopolysaccharide), which induces Cox-2. This assay can be used to evaluate the inhibitory effect of selective Cox-2 inhibitors on PGE2 production: As well, platelets in whole blood contain a large amount of the Cox-1 enzyme. Immediately following blood clotting, platelets are activated through a thrombin-mediated mechanism. This reaction results in the production of thromboxane B2 (TxB2) via activation of Cox-1. Thus, the effect of test compounds on TxB2 levels levels following blood clotting can be examined and used as an index for Cox-1 activity. Therefore, the degree of selectivity by the test compound can be determined by measuring the levels of PGE2 after LPS induction (Cox-2) and TxB2 following blood clotting (Cox-1) in the same assay.
Fresh blood was collected in heparinized tubes by venipuncture from both male and female volunteers. The subjects had no apparent inflammatory conditions and had not taken any NSAIDs for at least 7 days prior to blood collection. Plasma was immediately obtained from a 2mL blood aliquot to use as blank (basal levels of PGE2). The remaining blood was incubated with LPS (100 µg/ml final concentration, Sigma Chem, #L-2630 from E. coli; diluted in 0.1% BSA-Phosphate buffered saline) for 5 minutes at room temperature. Five hundred µL aliquots of blood were incubated with either 2 µL vehicle (DMSO) or 2 µL of a test compound at final concentrations varying from 10nM to 30µM for 24 hours at 37 °C. At the end of the incubation, the blood was centrifuged at 12,000 x g for 5 minutes to obtain plasma. A 100 µL aliquot of plasma was mixed with 400 µL of methanol for protein precipitation. The supernatant was obtained and was assayed for PGE2 using a radioimmunoassay kit (Amersham, RPA#530) after conversion of PGE2 to its methyl oximate derivative according to the manufacturer's procedure.
(§2) Compounds of the present invention are inhibitors of cyclooxygenase-2 and are thereby useful in the treatment of cyclooxygenase-2 mediated diseases as enumerated above. The activities of the compounds against cyclooxygenase may be seen in the representative results shown below. In the assay, inhibition is determined by measuring the amount of prostaglandin E2 (PGE2) synthesized in the presence of arachidonic acid, cyclooxygenase-1 or cyclooxygenase-2 and a putative inhibitor. The IC50 values represent the concentration of putative inhibitor required to return PGE2 synthesis to 50% of that obtained as compared to the uninhibited control.

Cox-1 = biological target: T2, Cox-1 (Homo sapiens, UniProt P23219); test: Human whole blood assay, Cox-1 (clotting-induced TxB2 production); type: cell-based; conditions: clotting 1 hour at 37 °C, TxB2 by enzyme immunoassay, read-out: HWB Cox-1 IC50
T2 construct: platelets in whole blood contain a large amount of the Cox-1 enzyme; endogenous in cells; host or cells: platelets in fresh human whole blood, no anticoagulant, clotting for 1 hour at 37 °C
Protocol: as §1
Fresh blood was collected into vacutainers containing no anticoagulants. Aliquots of 500 µL were immediately transferred to siliconized microcentrifuge tubes preloaded with 2 µL of either DMSO or a test compound at final concentrations varying from 10nM to 30 µM. The tubes were vortexed and incubated at 37 °C for 1 hour to allow blood to clot. At the end of incubation, serum was obtained by centrifugation (12,000 x g for 5 min.). A 100 µL aliquot of serum was mixed with 400 µL of methanol for protein precipitation. The supernatant was obtained and was assayed for TxB2 using a enzyme immunoassay kit (Cayman, #519031) according to the manufacturer's instruction.
as §2

Rat Paw Edema = test: Rat paw edema assay (carrageenan-induced); type: in vivo, Male Sprague-Dawley rats; conditions: po, 1 hr before subplantar carrageenan, paw volume 3 hr later
Protocol: Male Sprague-Dawley rats (150 - 200 g) were fasted overnight and were given po either vehicle (1% methocel or 5% Tween 80) or a test compound. One hr later, a line was drawn using a permanent marker at the level above the ankle in one hind paw to define the area of the paw to be monitored. The paw volume (V0) was measured using a plethysmometer (Ugo-Basile, Italy) based on the principle of water displacement The animals were then injected subplantarly with 50 µl of 1% carrageenan solution in saline (FMC Corp, Maine) into the paw using an insulin syringe with a 25-gauge needle (i.e. 500 µg carrageenan per paw). Three hr later, the paw volume (V3) was measured and the increases in paw volume (V3 - V0) were calculated. The animals were sacrificed by CO2 aphyxiation and the absence or presence of stomach lesions scored. Data were compared with the vehicle-control values and percent inhibition calculated. Since a maximum of 60-70% inhibition (paw edema) was obtained with standard NSAIDs, ED30 values were used for comparison. All treatment groups were coded to eliminate observer bias.

T2 sequence (P23219 24-599): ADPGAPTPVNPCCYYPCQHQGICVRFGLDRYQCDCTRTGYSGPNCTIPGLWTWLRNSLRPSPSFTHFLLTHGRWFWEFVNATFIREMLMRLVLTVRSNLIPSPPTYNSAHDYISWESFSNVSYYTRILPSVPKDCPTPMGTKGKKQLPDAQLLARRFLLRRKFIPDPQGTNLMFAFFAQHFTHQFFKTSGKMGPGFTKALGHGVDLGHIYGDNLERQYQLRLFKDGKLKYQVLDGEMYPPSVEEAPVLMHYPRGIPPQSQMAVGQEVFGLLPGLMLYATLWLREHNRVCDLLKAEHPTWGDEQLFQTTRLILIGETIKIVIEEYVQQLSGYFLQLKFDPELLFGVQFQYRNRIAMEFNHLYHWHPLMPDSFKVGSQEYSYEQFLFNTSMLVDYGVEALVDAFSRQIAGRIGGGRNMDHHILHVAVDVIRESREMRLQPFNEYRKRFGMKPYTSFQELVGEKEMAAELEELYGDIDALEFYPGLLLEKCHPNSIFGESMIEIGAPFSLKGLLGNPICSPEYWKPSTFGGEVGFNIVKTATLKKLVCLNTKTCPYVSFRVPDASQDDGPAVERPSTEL

IC50 (Cox-2) [nM] | IC50 (Cox-1) [nM] | Compound | ED30 (Rat Paw Edema) [mg/kg]
370 | 30000 | CS(=O)(=O)c1ccc(C2=C(c3ccccc3)C(=O)OC23CCCC3)cc1 [Example 10, 4-(4-(Methylsulfonyl)phenyl)-3-phenyl-1-oxa-spiro[4,4]non-3-en-2-one] | 0.41
60 | 2200 | CC1(C)CC(c2ccc(S(C)(=O)=O)cc2)=C(c2ccccc2)C1=O [Example 11, 5,5-Dimethyl-3-(4-(methylsulfonyl)phenyl)-2-phenylcyclopent-2-enone] | 1.17
600 | > 30000 | CS(=O)(=O)c1ccc(C2=C(c3ccccc3)C(=O)OC23CC3)cc1 [Example 13, 7-(4-(Methylsulfonyl)phenyl)-6-phenyl-4-oxa-spiro[2,4]-hept-6-en-5-one] | 0.3
1100 | > 30000 | CS(=O)(=O)c1ccc(C2=C(c3ccccc3)C(=O)OC2(CF)CF)cc1 [Example 14, 5,5-Bisfluoromethyl-3-phenyl-4-(4-(methylsulfonyl)phenyl)-2-(5H)-furanone] | 0.62

Second part, the molecule before the results:

Compound | IC50 (Cox-2) [nM] | IC50 (Cox-1) [nM] | ED30 (Rat Paw Edema) [mg/kg]
COc1cccc(C2=C(c3ccc(S(C)(=O)=O)cc3)C(C)(C)OC2=O)c1 [Example 2, 5,5-Dimethyl-3-(3-methoxyphenyl)-4-(4-(methylsulfonyl)phenyl)-2-(5H)-furanone] | 810 | > 30000 | 0.3
CC1(C)OC(=O)C(c2ccccc2)=C1c1ccc(S(C)(=O)=O)cc1 [Example 4, 5,5-Dimethyl-4-(4-(methylsulfonyl)phenyl)-3-phenyl-2-(5H)-furanone] | 170 | > 30000 | 0.26
